According to ChEMBL document CHEMBL1221255, “New halogenated 3-phenylcoumarins as potent and selective MAO-B inhibitors” (Bioorg Med Chem Lett, 2010):

What was measured:
[1] = biological target: T1, Amine oxidase [flavin-containing] B (Homo sapiens, UniProt P27338); assay: Inhibition of human MAOB expressed in BTI insect cells; type: cell-based
T1 sequence (P27338 whole entry): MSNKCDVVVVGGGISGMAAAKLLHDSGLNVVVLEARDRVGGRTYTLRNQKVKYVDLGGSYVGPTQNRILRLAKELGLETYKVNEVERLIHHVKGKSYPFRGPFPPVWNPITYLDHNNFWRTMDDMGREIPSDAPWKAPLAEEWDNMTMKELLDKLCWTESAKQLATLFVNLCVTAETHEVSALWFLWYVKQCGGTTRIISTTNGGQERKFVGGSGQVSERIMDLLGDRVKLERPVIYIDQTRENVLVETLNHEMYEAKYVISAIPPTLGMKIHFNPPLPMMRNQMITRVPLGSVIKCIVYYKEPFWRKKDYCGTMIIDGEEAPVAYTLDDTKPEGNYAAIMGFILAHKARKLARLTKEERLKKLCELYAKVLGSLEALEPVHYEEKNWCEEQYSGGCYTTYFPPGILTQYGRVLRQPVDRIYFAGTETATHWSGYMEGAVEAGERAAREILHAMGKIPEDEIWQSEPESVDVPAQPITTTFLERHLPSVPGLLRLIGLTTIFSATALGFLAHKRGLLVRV

[2] = biological target: T2, Amine oxidase [flavin-containing] A (Homo sapiens, UniProt P21397); assay: Inhibition of MAOA expressed in BTI insect cells at 100 uM
T2 sequence (P21397 whole entry): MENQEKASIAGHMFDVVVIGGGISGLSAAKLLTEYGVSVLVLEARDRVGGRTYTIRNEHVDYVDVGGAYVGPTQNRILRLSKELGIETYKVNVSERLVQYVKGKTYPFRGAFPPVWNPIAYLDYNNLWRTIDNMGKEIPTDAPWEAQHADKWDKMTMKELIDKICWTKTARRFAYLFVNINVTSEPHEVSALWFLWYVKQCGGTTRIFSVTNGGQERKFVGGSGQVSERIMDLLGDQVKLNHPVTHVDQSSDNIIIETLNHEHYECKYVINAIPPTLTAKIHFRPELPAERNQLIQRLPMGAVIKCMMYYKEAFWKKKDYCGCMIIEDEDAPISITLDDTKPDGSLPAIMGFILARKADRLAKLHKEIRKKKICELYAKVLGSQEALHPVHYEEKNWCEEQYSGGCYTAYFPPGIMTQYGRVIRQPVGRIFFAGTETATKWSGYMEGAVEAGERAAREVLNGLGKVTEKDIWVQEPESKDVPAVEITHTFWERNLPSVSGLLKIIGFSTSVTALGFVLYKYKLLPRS

[3] = species on record: Homo sapiens; assay: Selectivity ratio of IC50 for human MAOA to IC50 for human MAOB
[4] = biological target: T2, Amine oxidase [flavin-containing] A; assay: Inhibition of human MAOA expressed in BTI insect cells

Q: How did the IC50 [1] turn out when COc1ccc(-c2cc3cc(C)cc(Br)c3oc2=O)cc1 was run?
A: The IC50 was 3.23 nM.

Q: And the IC50 [2]?
A: The IC50 was “Not Active”.

Q: And the Ratio IC50 [3]?
A: Its Ratio IC50 is greater than 31000.

Q: For COc1cc(OC)cc(-c2cc3cc(C)cc(Br)c3oc2=O)c1, which IC50 [1] is on record?
A: The IC50 was 7.12 nM.

Q: And the IC50 [2]?
A: The IC50 was “Not Active”.

Q: What about the Ratio IC50 [3] of the same compound?
A: Its Ratio IC50 is greater than 14000.

Q: What does the source list for Cc1cc(Br)c2oc(=O)c(-c3ccccc3)cc2c1?
A: IC50 [1]: 11.1 nM; IC50 [2]: Not Active; Ratio IC50 [3]: > 9050

Q: For Cc1ccc2oc(=O)c(-c3ccccc3Br)cc2c1, which IC50 [1] is on record?
A: The IC50 was 4300 nM.

Q: And the IC50 [2]?
A: Its IC50 is “Not Active”.

Q: What about the Ratio IC50 [3] of the same compound?
A: Its Ratio IC50 is greater than 23.

Q: Which results are given for COc1cc(-c2cc3cc(C)cc(Br)c3oc2=O)cc(OC)c1OC?
A: IC50 [1]: 4890 nM; IC50 [4]: 31200 nM; Ratio IC50 [3]: 6.4
